Experimental data as given in patent publication US6844004B2, “Topical formulations of natamycin/pimaricin” (Board of Regents, The University of Texas System, priority 1997, dated 2005).
Values after ≈ are worked out from the molar mass of the structure shown.

Tests used:
[1] = surface in contact with AMB; cited from earlier work
[2] = assay type: physicochemical
Procedure: Stability of the various Natamycin formulations. To study the physical and chemical stability of the various parenteral formulations, three sets of studies were performed: • (a) Natamycin was dissolved at a concentration of 100-300 mg/ml in HAc (“stock solution”) and incubated at 4° C., at 22° C. and at 40° C. The drug concentration was analyzed by HPLC in samples taken immediately after solubilization and after gradually increasing time intervals of up to 48 hours. • (b) The Natamycin-HAc stock solution was diluted with PEG/water (1:1:1, v:v:v, HAc:PEG:water), or PG/DMSO (1:1:1, v:v:v), or PG/DMSO/PEG (1:1:1:1, v:v:v:v), or aqueous lipid emulsion (1:10 and 1:100, v:v, HAc:Intralipid™), to yield Natamycin concentrations ranging from 1-50 mg/ml. • (c) The HAc-Natamycin mixture was diluted in NS or 5% dextrose to a drug concentration of 1 mg/ml. (d) The HAc-Natamycin mixture was blended with DMSO and Intralipid™, or directly in Intralipid™.
The various formulations were analyzed by HPLC immediately after mixing, then hourly for 8 hours, and then at gradually increasing time intervals up to several weeks, depending on the rate of degradation in the respective solvent system.
The temperature-dependent stability of solubilized Natamycin in the different solvent systems was studied as follows: The drug was dissolved in HAc at 100 mg/ml, and different aliquots were stored at 4° C., at 22° C., and at 40° C. Immediately after solubilization and at various intervals up to 48 hours later, aliquots from the different samples were analyzed by HPLC. The drug samples stored at 4° C. and at 22° C. degraded slower than those stored at higher temperatures: at 40° C. the Natamycin started degrading within 1 hour after the start of incubation, and at RT there was a loss of 5-10% in the first 4 hours.

physchem = assay type: physicochemical; conditions: 22 °C, organic solvent or mixture, thermodynamic from solid
Procedure: Natamycin solubility was determined in several individual vehicles (see Table I). Briefly, a known amount of the drug, as a powder (different lots of purified drug were obtained from Gist-Brocades N.V., Netherlands, and from Sigma Chemical Company, St Louis, Mo.), was equilibrated in the respective solvent at RT (22° C.) over 5 min to 4 hours. An aliquot was then removed and diluted in MeOH prior to HPLC at predetermined times. Based on the Natamycin solubility in these particular vehicles, the inventors attempted to enhance the solubility by mixing different solvents according to the principle of cosolvency (Spiegel and Noseworthy, 1963; Yalkowsky and Roseman, 1981). Several different solvent systems were evaluated relative to the above estimates of necessary solubility to arrive at a clinically relevant optimal stock formulation. […] The “final solvent” is preferably one of the commonly available ointment bases, such as petroleum jelly, cocoa butter, Aquaphor™, all of which are readily available and commonly used for topical administration, either for moisturizing purpose or for dissolving various chemically active compounds.
Solubility Studies. […] Samples of 1 ml were taken at various time intervals, and filtered through a 0.45 μm PTFE™ membrane filter fitted to a syringe assembly (Whatman Inc.), and after appropriate dilution, the Natamycin concentration was determined by HPLC.

[3] = test system: tested strains of Fusarium; experiment: Antifungal sensitivity (MIC); assay type: cell-based; conditions: all tested strains of Fusarium
Procedure: (§1) Methodology. The antifungal activity of Natamycin was compared with that of amphotericin B utilizing a previously described assay (Anaissie et al., 1991). Briefly, serial dilutions of Natamycin and AMB were mixed in RPMI growth medium with L-glutamine and MOPS-buffer, pH 7.0 (Sigma Chemical Co., St. Louis, Mo.). The different strains of Candida, Aspergillus and Fusarium spp. were then added to the dishes. After incubation at 35° C. for 48 to 72 hours the plates were evaluated for fungal proliferation. The used fungal strains were obtained from the ATCC or isolated from patients, primarily at the MD Anderson Cancer Center. The Natamycin concentrations in the used solutions were assayed with HPLC to assure the highest possible reproducibility of the drug concentrations.

A. flavus = experiment: Antifungal sensitivity (MIC); assay type: cell-based; conditions: Aspergillus flavus; the tested A. flavus
Procedure: as §1

[4] = test system: tested strains of Candida spp.; experiment: Antifungal sensitivity (MIC); assay type: cell-based; conditions: all tested strains of Candida spp.
Procedure: as §1

[5] = test system: Aspergillus strains, except for A. flavus; experiment: Antifungal sensitivity (MIC); assay type: cell-based; conditions: all Aspergillus strains except A. flavus
Procedure: as §1

| Compound | inflammation of the mucosal surface, share of treated subjects [1] | loss of drug (degradation) ([2]; 100 mg/ml) | time to start of degradation ([2]; 100 mg/ml) | time until degradation apparent ([2]; 100 mg/ml) | time stable (by HPLC) ([2]; HAc and DMSO primary solvent, Intralipid, lyophilized, reconstituted to 10 mg/ml with distilled water, RT) | time stable ([2]; HAc-Natamycin stock diluted with 20% Intralipid to 10-50 mg/ml) | solubility thermodynamic (physchem) | MIC (sensitive in the range) [3] | MIC (A. flavus) | MIC (sensitive in the range) [4] | MIC [5] |
| --- | --- | --- | --- | --- | --- | --- | --- | --- | --- | --- | --- |
| C[C@@H]1[C@H](O)[C@@H](C)/C=C/C=C/C=C/C=C/C=C/C=C/C=C/[C@H](O[C@@H]2O[C@H](C)[C@@H](O)[C@H](N)[C@@H]2O)C[C@@H]2O[C@](O)(C[C@@H](O)C[C@@H](O)[C@H](O)CC[C@@H](O)C[C@@H](O)CC(=O)O[C@H]1C)C[C@H](O)[C@H]2C(=O)O [AMB, Amphotericin B] | > 75% |  |  |  |  |  |  |  |  |  |  |
| C[C@@H]1C/C=C/C=C/C=C/C=C/[C@H](O[C@@H]2O[C@H](C)[C@@H](O)[C@H](N)[C@@H]2O)C[C@@H]2O[C@](O)(C[C@@H](O)C[C@H]3O[C@@H]3/C=C/C(=O)O1)C[C@H](O)[C@H]2C(=O)O [Natamycin, Pimaricin] |  | 5-10% | ≤ 1 h | 8 to 12 h | more than 24 hours | more than 6 weeks | > 100 mg/mL | 2 to 4 µg/mL | 16 µg/mL (≈ 24 µM) | 2 to 4 µg/mL | 2 to 4 µg/mL (≈ 3 to 6.01 µM) |
